Test system: 454973-116-R2-J3-PDC complex spheroid viability
Test: Anticancer human tumor 454973-116-R2-J3-PDC patient-derived pancreatic carcinoma cell line growth inhibition [POLQ]
Conditions: for IC50: curve of first compound; for viability, T/C: stronger effect = lower value
Procedure, shortened: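 Patient-derived tumour cells were co-cultured with HUVEC and mesenchymal stem cells as multicellular spheroids at 37 °C. They were treated with POLQ inhibitors (novobiocin, ART-558, RP6685) alone or combined with other agents. Top concentrations were at or near clinical Cmax (otherwise 10 microM; SN-38 at 1 microM), decreasing in half-log steps.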

[1] = second compound 0.0316 µM, first compound 0.0316 µM
[2] = second compound 0.0316 µM, first compound 0.1 µM
[3] = second compound 0.0316 µM, first compound 0.316 µM
[4] = second compound 0.0316 µM, first compound 1 µM
[5] = second compound 0.0316 µM, first compound 3.16 µM
[6] = second compound 0.0316 µM, first compound 10 µM
[7] = second compound 0.1 µM, first compound 0.0316 µM
[8] = second compound 0.1 µM, first compound 0.1 µM
[9] = second compound 0.1 µM, first compound 0.316 µM
[10] = second compound 0.1 µM, first compound 1 µM
[11] = second compound 0.1 µM, first compound 3.16 µM
[12] = second compound 0.1 µM, first compound 10 µM
[13] = second compound 0.316 µM, first compound 0.0316 µM
[14] = second compound 0.316 µM, first compound 0.1 µM
[15] = second compound 0.316 µM, first compound 0.316 µM
[16] = second compound 0.316 µM, first compound 1 µM
[17] = second compound 0.316 µM, first compound 3.16 µM
[18] = second compound 0.316 µM, first compound 10 µM
[19] = second compound 1 µM, first compound 0.0316 µM
[20] = second compound 1 µM, first compound 0.1 µM
[21] = second compound 1 µM, first compound 0.316 µM
[22] = second compound 1 µM, first compound 1 µM
[23] = second compound 1 µM, first compound 3.16 µM
[24] = second compound 1 µM, first compound 10 µM
[25] = second compound 3.16 µM, first compound 0.0316 µM
[26] = second compound 3.16 µM, first compound 0.1 µM
[27] = second compound 3.16 µM, first compound 0.316 µM
[28] = second compound 3.16 µM, first compound 1 µM
[29] = second compound 3.16 µM, first compound 3.16 µM
[30] = second compound 3.16 µM, first compound 10 µM
[31] = second compound 10 µM, first compound 0.0316 µM
[32] = second compound 10 µM, first compound 0.1 µM
[33] = second compound 10 µM, first compound 0.316 µM
[34] = second compound 10 µM, first compound 1 µM
[35] = second compound 10 µM, first compound 3.16 µM
[36] = second compound 10 µM, first compound 10 µM
[37] = second compound 0.0316 µM, first compound 0.00316 µM
[38] = second compound 0.0316 µM, first compound 0.01 µM
[39] = second compound 0.1 µM, first compound 0.00316 µM
[40] = second compound 0.1 µM, first compound 0.01 µM
[41] = second compound 0.316 µM, first compound 0.00316 µM
[42] = second compound 0.316 µM, first compound 0.01 µM
[43] = second compound 1 µM, first compound 0.00316 µM
[44] = second compound 1 µM, first compound 0.01 µM
[45] = second compound 3.16 µM, first compound 0.00316 µM
[46] = second compound 3.16 µM, first compound 0.01 µM
[47] = second compound 10 µM, first compound 0.00316 µM
[48] = second compound 10 µM, first compound 0.01 µM
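Further: spheroids exposed to drugs for seven days before measurement.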
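Wherever viability, T/C is given: percent viability relative to DMSO vehicle control wells taken as 100%.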

CC1COCCN1c1cc(-c2ccnn2C)c2ccnc(-c3ccn[nH]3)c2n1 (stereo not drawn) + COC1C(OC(N)=O)C(O)C(Oc2ccc3c(O)c(NC(=O)c4ccc(O)c(CC=C(C)C)c4)c(=O)oc3c2C)OC1(C)C gave an IC50 (second compound 0.0316 µM) of 205 nM, an IC50 (second compound 0.1 µM) of 217 nM and an IC50 (second compound 0.316 µM) of 209 nM. For the same compound, the IC50 (second compound 1 µM) was 220 nM, the IC50 (second compound 3.16 µM) was 223 nM and the IC50 (second compound 10 µM) was 198 nM. For the same compound, the viability, T/C [1] was 97%, the viability, T/C [2] was 71.8% and the viability, T/C [3] was 38.5%. The viability, T/C [4] was 19.2%, the viability, T/C [5] was 22.8% and the viability, T/C [6] was 25.9%. For the same compound, the viability, T/C [7] was 97.3%, the viability, T/C [8] was 75.7% and the viability, T/C [9] was 38%. It also gave a viability, T/C [10] of 21.9%, a viability, T/C [11] of 20.1% and a viability, T/C [12] of 23.9%. For the same compound, the viability, T/C [13] was 97.8%, the viability, T/C [14] was 77.2% and the viability, T/C [15] was 35.4%. For the same compound, the viability, T/C [16] was 21.2%, the viability, T/C [17] was 23.2% and the viability, T/C [18] was 29.6%. It also gave a viability, T/C [19] of 103%, a viability, T/C [20] of 79% and a viability, T/C [21] of 37.8%. The viability, T/C [22] was 18.8%, the viability, T/C [23] was 23.2% and the viability, T/C [24] was 26.6%. It also gave a viability, T/C [25] of 100%, a viability, T/C [26] of 77.9% and a viability, T/C [27] of 39%. It also gave a viability, T/C [28] of 20.4%, a viability, T/C [29] of 26.1% and a viability, T/C [30] of 27.9%. The viability, T/C [31] was 105%, the viability, T/C [32] was 70.8% and the viability, T/C [33] was 38%. For the same compound, the viability, T/C [34] was 16.7%, the viability, T/C [35] was 25.9% and the viability, T/C [36] was 33.7%.
With CCCS(=O)(=O)Nc1ccc(F)c(C(=O)c2c[nH]c3ncc(-c4ccc(Cl)cc4)cc23)c1F + COC1C(OC(N)=O)C(O)C(Oc2ccc3c(O)c(NC(=O)c4ccc(O)c(CC=C(C)C)c4)c(=O)oc3c2C)OC1(C)C the IC50 (second compound 0.0316 µM) was 9520 nM, the IC50 (second compound 0.1 µM) was > 10000 nM and the IC50 (second compound 0.316 µM) was > 10000 nM. The IC50 (second compound 1 µM) was > 10000 nM, the IC50 (second compound 3.16 µM) was > 10000 nM and the IC50 (second compound 10 µM) was > 10000 nM. It also gave a viability, T/C [1] of 98.9%, a viability, T/C [2] of 106% and a viability, T/C [3] of 101%. The viability, T/C [4] was 114%, the viability, T/C [5] was 110% and the viability, T/C [6] was 47.5%. It also gave a viability, T/C [7] of 98.9%, a viability, T/C [8] of 118% and a viability, T/C [9] of 103%. For the same compound, the viability, T/C [10] was 113%, the viability, T/C [11] was 109% and the viability, T/C [12] was 54.8%. It also gave a viability, T/C [13] of 107%, a viability, T/C [14] of 114% and a viability, T/C [15] of 103%. For the same compound, the viability, T/C [16] was 110%, the viability, T/C [17] was 103% and the viability, T/C [18] was 57.3%. The viability, T/C [19] was 120%, the viability, T/C [20] was 107% and the viability, T/C [21] was 109%. It also gave a viability, T/C [22] of 117%, a viability, T/C [23] of 108% and a viability, T/C [24] of 57.3%. The viability, T/C [25] was 112%, the viability, T/C [26] was 109% and the viability, T/C [27] was 103%. The viability, T/C [28] was 106%, the viability, T/C [29] was 105% and the viability, T/C [30] was 62.8%. For the same compound, the viability, T/C [31] was 114%, the viability, T/C [32] was 104% and the viability, T/C [33] was 97.2%. It also gave a viability, T/C [34] of 106%, a viability, T/C [35] of 109% and a viability, T/C [36] of 65.5%.
Compound COc1cccc(OCCCN)c1-c1cc(Nc2cnc(C#N)cn2)n[nH]1 + COC1C(OC(N)=O)C(O)C(Oc2ccc3c(O)c(NC(=O)c4ccc(O)c(CC=C(C)C)c4)c(=O)oc3c2C)OC1(C)C has an IC50 (second compound 0.0316 µM) of 16.9 nM, an IC50 (second compound 0.1 µM) of 16.5 nM and an IC50 (second compound 0.316 µM) of 15.2 nM. The IC50 (second compound 1 µM) was 15.5 nM, the IC50 (second compound 3.16 µM) was 15.8 nM and the IC50 (second compound 10 µM) was 15.1 nM. The viability, T/C [37] was 103%, the viability, T/C [38] was 78% and the viability, T/C [1] was 16.5%. For the same compound, the viability, T/C [2] was 5.78%, the viability, T/C [3] was 6.6% and the viability, T/C [4] was 5.48%. For the same compound, the viability, T/C [39] was 103%, the viability, T/C [40] was 78.8% and the viability, T/C [7] was 12.9%. The viability, T/C [8] was 5.6%, the viability, T/C [9] was 5.16% and the viability, T/C [10] was 6.37%. For the same compound, the viability, T/C [41] was 95.6%, the viability, T/C [42] was 70.8% and the viability, T/C [13] was 13.3%. It also gave a viability, T/C [14] of 5.72%, a viability, T/C [15] of 3.83% and a viability, T/C [16] of 4.13%. For the same compound, the viability, T/C [43] was 97%, the viability, T/C [44] was 73.2% and the viability, T/C [19] was 12.2%. For the same compound, the viability, T/C [20] was 6.82%, the viability, T/C [21] was 5.97% and the viability, T/C [22] was 5.82%. For the same compound, the viability, T/C [45] was 107%, the viability, T/C [46] was 75.5% and the viability, T/C [25] was 11%. It also gave a viability, T/C [26] of 7.17%, a viability, T/C [27] of 6.78% and a viability, T/C [28] of 5.38%. For the same compound, the viability, T/C [47] was 104%, the viability, T/C [48] was 68% and the viability, T/C [31] was 17.8%. For the same compound, the viability, T/C [32] was 6.01%, the viability, T/C [33] was 7.28% and the viability, T/C [34] was 7.27%.
Cn1ncnc1[C@H]1c2n[nH]c(=O)c3cc(F)cc(c23)N[C@@H]1c1ccc(F)cc1 + COC1C(OC(N)=O)C(O)C(Oc2ccc3c(O)c(NC(=O)c4ccc(O)c(CC=C(C)C)c4)c(=O)oc3c2C)OC1(C)C was tested, and the IC50 (second compound 0.0316 µM) was > 100 nM, the IC50 (second compound 0.1 µM) was > 100 nM and the IC50 (second compound 0.316 µM) was > 100 nM. For the same compound, the IC50 (second compound 1 µM) was > 100 nM, the IC50 (second compound 3.16 µM) was > 100 nM and the IC50 (second compound 10 µM) was > 100 nM. The viability, T/C (second compound 0.0316 µM, first compound 0.000316 µM) was 100%, the viability, T/C (second compound 0.0316 µM, first compound 0.001 µM) was 111% and the viability, T/C [37] was 102%. For the same compound, the viability, T/C [38] was 109%, the viability, T/C [1] was 95.1% and the viability, T/C [2] was 83.4%. The viability, T/C (second compound 0.1 µM, first compound 0.000316 µM) was 102%, the viability, T/C (second compound 0.1 µM, first compound 0.001 µM) was 112% and the viability, T/C [39] was 105%. For the same compound, the viability, T/C [40] was 104%, the viability, T/C [7] was 98.5% and the viability, T/C [8] was 90.5%. The viability, T/C (second compound 0.316 µM, first compound 0.000316 µM) was 112%, the viability, T/C (second compound 0.316 µM, first compound 0.001 µM) was 114% and the viability, T/C [41] was 105%. The viability, T/C [42] was 100%, the viability, T/C [13] was 93.5% and the viability, T/C [14] was 83.3%. The viability, T/C (second compound 1 µM, first compound 0.000316 µM) was 109%, the viability, T/C (second compound 1 µM, first compound 0.001 µM) was 102% and the viability, T/C [43] was 107%. It also gave a viability, T/C [44] of 102%, a viability, T/C [19] of 93.1% and a viability, T/C [20] of 82.5%. It also gave a viability, T/C (second compound 3.16 µM, first compound 0.000316 µM) of 107%, a viability, T/C (second compound 3.16 µM, first compound 0.001 µM) of 111% and a viability, T/C [45] of 104%. The viability, T/C [46] was 100%, the viability, T/C [25] was 104% and the viability, T/C [26] was 88.9%. The viability, T/C (second compound 10 µM, first compound 0.000316 µM) was 101%, the viability, T/C (second compound 10 µM, first compound 0.001 µM) was 96% and the viability, T/C [47] was 98.3%. The viability, T/C [48] was 103%, the viability, T/C [31] was 87.2% and the viability, T/C [32] was 78.1%.

— PubChem BioAssay AID1963846 (Molecular Pharmacology Branch, DTP, NCI, 2024)
